Broadly, the pIC50 is the IC50 on a negative log10 scale, so that one unit is a factor of ten. A low value points to a high IC50.

These results are taken from BindingDB's records for doi:10.1021/acs.biochem.6b00338 (University of California Santa Cruz, 2016).

pIC50: −log10 of the molar value.

The target of the test is T1, Arachidonate 15-lipoxygenase (Pseudomonas aeruginosa, UniProt Q9I4G8).
T1 sequence (Q9I4G8 whole entry): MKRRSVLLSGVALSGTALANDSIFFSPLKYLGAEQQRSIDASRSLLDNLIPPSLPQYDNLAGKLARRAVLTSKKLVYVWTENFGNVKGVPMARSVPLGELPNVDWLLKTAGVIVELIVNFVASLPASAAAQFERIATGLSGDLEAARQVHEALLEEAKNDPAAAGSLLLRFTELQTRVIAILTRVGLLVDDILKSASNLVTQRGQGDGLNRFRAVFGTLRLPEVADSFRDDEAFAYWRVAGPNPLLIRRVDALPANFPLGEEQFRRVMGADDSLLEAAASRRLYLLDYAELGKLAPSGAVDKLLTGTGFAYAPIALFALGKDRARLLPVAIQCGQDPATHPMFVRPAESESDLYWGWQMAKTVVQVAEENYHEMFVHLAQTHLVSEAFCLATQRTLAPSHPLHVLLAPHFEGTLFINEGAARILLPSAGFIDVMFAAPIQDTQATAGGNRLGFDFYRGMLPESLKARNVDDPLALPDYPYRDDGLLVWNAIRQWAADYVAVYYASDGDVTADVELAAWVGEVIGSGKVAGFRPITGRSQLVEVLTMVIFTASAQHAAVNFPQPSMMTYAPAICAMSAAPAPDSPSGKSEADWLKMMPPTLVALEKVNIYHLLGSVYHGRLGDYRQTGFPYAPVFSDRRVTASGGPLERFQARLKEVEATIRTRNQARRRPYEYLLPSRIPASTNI
Description: LoxA Selectivity Assay. Particulars: pH 7; 25 °C. On the procedure: The one-point inhibition percentages were determined for human LOX inhibitors by following the formation of the conjugated diene product at 234 nm (ε = 25,000 M−1 cm−1) at an inhibitor concentration of 25 μM. All reaction mixtures were 2 mL in volume and constantly stirred using a magnetic stir bar at room temperature (22 °C) with 7 nM LoxA. Reactions were conducted in 25 mM HEPES buffer (pH 7.0), 0.01% Triton X-100, and 10 μM AA. The concentration of AA was quantitatively determined by allowing the enzymatic reaction to go to completion. Confirmed hitswere then screened against the human isozymes 5-LOX, 15-LOX-1, 15-LOX-2, and 12-LOX for specificity.
In turn, `CC(Cc1ccc(O)c(O)c1)C(C)Cc1ccc(O)c(O)c1` (stereo not given) [LOX inhibitor, N/A] showed a pIC50 of 6.30.

Regarding `O=C(OCC#CCSc1nnc(-c2cccc3ccccc23)o1)c1ccccc1` [4-(5-(Naphthalen-1-yl)-1,3,4-oxadiazol-2-ylthio)but-2-ynyl benzoate], the pIC50 was 8.00.

`CCCCCCc1ccn(Cc2ccccc2C)c(=O)c1` [PT171] gave a pIC50 of 6.28.

With `CCCCCCc1ccc(Oc2ccccc2F)c(O)c1` [PT113], the pIC50 is 6.00.

In the case of `CCCCCCc1ccc(Oc2ccccc2Cl)c(O)c1` [PT91], the pIC50 was 5.59.
